Test system: LNCaP tumor-transplanted mouse
Experiment: Internal radioactivity distribution using LNCaP tumor-transplanted mouse
Type: in vivo
Outline: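 Male SCID mice bearing subcutaneous LNCaP or PC-3 xenografts (40–60 days) received the 111In-labelled compound i.v. via tail vein (185–259 kBq in saline; n=2–3). Blood and organs collected at 1 to 192 hours post-dose, weighed and counted. Uptake expressed as %ID/g.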

Structure (SMILES): O=C([O-])CN1CCN(C(CCC(=O)NCCCC[C@H](NC(=O)N[C@@H](CCC(=O)O)C(=O)O)C(=O)O)C(=O)[O-])CCN(CC(=O)[O-])CCN(C(CCC(=O)N[C@@H](CCCCNC(=O)CCCc2ccc(I)cc2)C(=O)O)C(=O)[O-])CC1.[111In+3] (stereo partly shown) [[^111In]In-PSMA-DA1]
- Blood (1 h after administration): 31.1 ± 3.99 % ID/g
- Brain (1 h after administration): 0.56 ± 0.06 % ID/g
- Heart (1 h after administration): 7.93 ± 2.10 % ID/g
- Intestine (1 h after administration): 2.63 ± 0.42 % ID/g
- Kidney (1 h after administration): 34.3 ± 7.79 % ID/g
- LNCaP Tumor (1 h after administration): 9.41 ± 2.30 % ID/g
- Liver (1 h after administration): 4.95 ± 0.27 % ID/g
- Lung (1 h after administration): 16.2 ± 3.86 % ID/g
- Muscle (1 h after administration): 2.02 ± 0.17 % ID/g
- Pancreas (1 h after administration): 3.34 ± 0.40 % ID/g
- Spleen (1 h after administration): 8.56 ± 2.90 % ID/g
- Stomach (% ID) (1 h after administration): 0.52 ± 0.02 % ID
- Blood (4 h after administration): 26.9 ± 9.56 % ID/g
- Brain (4 h after administration): 0.52 ± 0.15 % ID/g
- Heart (4 h after administration): 7.10 ± 1.82 % ID/g
- Intestine (4 h after administration): 3.17 ± 0.73 % ID/g
- Kidney (4 h after administration): 63.5 ± 13.9 % ID/g
- LNCaP Tumor (4 h after administration): 12.1 ± 4.04 % ID/g
- Liver (4 h after administration): 4.20 ± 1.51 % ID/g
- Lung (4 h after administration): 17.9 ± 6.62 % ID/g
- Muscle (4 h after administration): 2.15 ± 1.09 % ID/g
- Pancreas (4 h after administration): 2.48 ± 1.03 % ID/g
- Spleen (4 h after administration): 9.52 ± 4.28 % ID/g
- Stomach (% ID) (4 h after administration): 0.51 ± 0.05 % ID
- Blood (24 h after administration): 14.0 ± 3.27 % ID/g
- Brain (24 h after administration): 0.36 ± 0.11 % ID/g
- Heart (24 h after administration): 4.26 ± 0.89 % ID/g
- Intestine (24 h after administration): 1.53 ± 0.44 % ID/g
- Kidney (24 h after administration): 27.1 ± 9.25 % ID/g
- LNCaP Tumor (24 h after administration): 12.6 ± 2.15 % ID/g
- Liver (24 h after administration): 2.64 ± 0.38 % ID/g
- Lung (24 h after administration): 10.5 ± 2.58 % ID/g
- Muscle (24 h after administration): 1.38 ± 0.39 % ID/g
- Pancreas (24 h after administration): 2.12 ± 0.49 % ID/g
- Spleen (24 h after administration): 6.01 ± 2.33 % ID/g
- Stomach (% ID) (24 h after administration): 0.40 ± 0.09 % ID
- retention in blood (24 hours after administration): 14.000 % ID/g
- Blood (48 h after administration): 4.18 ± 0.56 % ID/g
- Brain (48 h after administration): 0.16 ± 0.01 % ID/g
- Heart (48 h after administration): 1.66 ± 0.23 % ID/g
- Intestine (48 h after administration): 0.96 ± 0.25 % ID/g
- Kidney (48 h after administration): 9.04 ± 2.70 % ID/g
- LNCaP Tumor (48 h after administration): 8.82 ± 1.26 % ID/g
- Liver (48 h after administration): 1.59 ± 0.14 % ID/g
- Lung (48 h after administration): 4.17 ± 0.26 % ID/g
- Muscle (48 h after administration): 0.54 ± 0.10 % ID/g
- Pancreas (48 h after administration): 1.06 ± 0.12 % ID/g
- Spleen (48 h after administration): 4.28 ± 0.79 % ID/g
- Stomach (% ID) (48 h after administration): 0.25 ± 0.05 % ID
- tumor/kidney ratio (48 hours after administration): exceeded 1
- Blood (96 h after administration): 0.76 ± 0.58 % ID/g
- Brain (96 h after administration): 0.07 ± 0.03 % ID/g
- Heart (96 h after administration): 0.75 ± 0.33 % ID/g
- Intestine (96 h after administration): 0.75 ± 0.44 % ID/g
- Kidney (96 h after administration): 3.51 ± 2.54 % ID/g
- LNCaP Tumor (96 h after administration): 5.98 ± 1.87 % ID/g
- Liver (96 h after administration): 1.10 ± 0.27 % ID/g
- Lung (96 h after administration): 1.55 ± 0.86 % ID/g
- Muscle (96 h after administration): 0.23 ± 0.09 % ID/g
- Pancreas (96 h after administration): 0.64 ± 0.24 % ID/g
- Spleen (96 h after administration): 2.42 ± 1.54 % ID/g
- Stomach (% ID) (96 h after administration): 0.08 ± 0.03 % ID
- Blood (192 h after administration): 0.16 ± 0.03 % ID/g
- Brain (192 h after administration): 0.05 ± 0.01 % ID/g
- Heart (192 h after administration): 0.41 ± 0.08 % ID/g
- Intestine (192 h after administration): 0.12 ± 0.03 % ID/g
- Kidney (192 h after administration): 1.33 ± 0.42 % ID/g
- LNCaP Tumor (192 h after administration): 4.69 ± 1.32 % ID/g
- Liver (192 h after administration): 0.69 ± 0.12 % ID/g
- Lung (192 h after administration): 0.75 ± 0.22 % ID/g
- Muscle (192 h after administration): 0.15 ± 0.05 % ID/g
- Pancreas (192 h after administration): 0.46 ± 0.08 % ID/g
- Spleen (192 h after administration): 2.69 ± 0.83 % ID/g
- Stomach (% ID) (192 h after administration): 0.05 ± 0.01 % ID

Structure (SMILES): O=C([O-])CN1CCN(C(CCC(=O)NCCCC[C@H](NC(=O)N[C@@H](CCC(=O)O)C(=O)O)C(=O)O)C(=O)[O-])CCN(CC(=O)[O-])CCN(C(CCC(=O)Nc2ccccc2)C(=O)[O-])CC1.[111In+3] (stereo partly shown) [[^111In]In-PSMA-DB, reference compound]
- Blood (1 h after administration): 3.33 ± 0.21 % ID/g
- Brain (1 h after administration): 0.06 ± 0.01 % ID/g
- Heart (1 h after administration): 0.87 ± 0.33 % ID/g
- Intestine (1 h after administration): 0.59 ± 0.14 % ID/g
- Kidney (1 h after administration): 59.2 ± 35.2 % ID/g
- LNCaP Tumor (1 h after administration): 3.36 ± 0.04 % ID/g
- Liver (1 h after administration): 0.91 ± 0.20 % ID/g
- Lung (1 h after administration): 2.24 ± 0.60 % ID/g
- Muscle (1 h after administration): 0.23 ± 0.68 % ID/g
- Pancreas (1 h after administration): 0.74 ± 0.25 % ID/g
- Spleen (1 h after administration): 3.05 ± 0.53 % ID/g
- Stomach (% ID) (1 h after administration): 0.10 ± 0.04 % ID
- Blood (4 h after administration): 2.00 ± 0.29 % ID/g
- Brain (4 h after administration): 0.05 ± 0.00 % ID/g
- Heart (4 h after administration): 0.60 ± 0.08 % ID/g
- Intestine (4 h after administration): 1.05 ± 0.10 % ID/g
- Kidney (4 h after administration): 22.7 ± 9.69 % ID/g
- LNCaP Tumor (4 h after administration): 2.50 ± 0.50 % ID/g
- Liver (4 h after administration): 0.95 ± 0.05 % ID/g
- Lung (4 h after administration): 1.56 ± 0.07 % ID/g
- Muscle (4 h after administration): 0.21 ± 0.04 % ID/g
- Pancreas (4 h after administration): 0.54 ± 0.22 % ID/g
- Spleen (4 h after administration): 2.39 ± 0.05 % ID/g
- Stomach (% ID) (4 h after administration): 0.13 ± 0.03 % ID
- Blood (24 h after administration): 0.68 ± 0.17 % ID/g
- Brain (24 h after administration): 0.07 ± 0.02 % ID/g
- Heart (24 h after administration): 0.43 ± 0.07 % ID/g
- Intestine (24 h after administration): 1.00 ± 0.44 % ID/g
- Kidney (24 h after administration): 13.2 ± 2.41 % ID/g
- LNCaP Tumor (24 h after administration): 2.09 ± 0.39 % ID/g
- Liver (24 h after administration): 1.55 ± 0.32 % ID/g
- Lung (24 h after administration): 0.97 ± 0.15 % ID/g
- Muscle (24 h after administration): 0.21 ± 0.07 % ID/g
- Pancreas (24 h after administration): 0.71 ± 0.10 % ID/g
- Spleen (24 h after administration): 3.37 ± 0.75 % ID/g
- Stomach (% ID) (24 h after administration): 0.16 ± 0.05 % ID
- Blood (48 h after administration): 0.27 ± 0.16 % ID/g
- Brain (48 h after administration): 0.03 ± 0.02 % ID/g
- Heart (48 h after administration): 0.32 ± 0.05 % ID/g
- Intestine (48 h after administration): 0.79 ± 0.21 % ID/g
- Kidney (48 h after administration): 8.58 ± 2.02 % ID/g
- LNCaP Tumor (48 h after administration): 1.69 ± 0.77 % ID/g
- Liver (48 h after administration): 1.28 ± 0.16 % ID/g
- Lung (48 h after administration): 0.66 ± 0.24 % ID/g
- Muscle (48 h after administration): 0.15 ± 0.06 % ID/g
- Pancreas (48 h after administration): 0.71 ± 0.17 % ID/g
- Spleen (48 h after administration): 2.63 ± 0.83 % ID/g
- Stomach (% ID) (48 h after administration): 0.07 ± 0.02 % ID
- Blood (96 h after administration): 0.14 ± 0.04 % ID/g
- Brain (96 h after administration): 0.09 ± 0.05 % ID/g
- Heart (96 h after administration): 0.40 ± 0.12 % ID/g
- Intestine (96 h after administration): 0.41 ± 0.17 % ID/g
- Kidney (96 h after administration): 7.04 ± 3.28 % ID/g
- LNCaP Tumor (96 h after administration): 1.05 ± 0.03 % ID/g
- Liver (96 h after administration): 1.59 ± 0.57 % ID/g
- Lung (96 h after administration): 0.70 ± 0.15 % ID/g
- Muscle (96 h after administration): 0.14 ± 0.08 % ID/g
- Pancreas (96 h after administration): 0.85 ± 0.39 % ID/g
- Spleen (96 h after administration): 2.82 ± 0.87 % ID/g
- Stomach (% ID) (96 h after administration): 0.10 ± 0.03 % ID
- Blood (192 h after administration): 0.07 ± 0.03 % ID/g
- Brain (192 h after administration): 0.04 ± 0.00 % ID/g
- Heart (192 h after administration): 0.33 ± 0.01 % ID/g
- Intestine (192 h after administration): 0.13 ± 0.02 % ID/g
- Kidney (192 h after administration): 3.47 ± 1.24 % ID/g
- LNCaP Tumor (192 h after administration): 0.83 ± 0.11 % ID/g
- Liver (192 h after administration): 1.20 ± 0.09 % ID/g
- Lung (192 h after administration): 0.67 ± 0.05 % ID/g
- Muscle (192 h after administration): 0.14 ± 0.09 % ID/g
- Pancreas (192 h after administration): 1.04 ± 0.18 % ID/g
- Spleen (192 h after administration): 3.46 ± 0.32 % ID/g
- Stomach (% ID) (192 h after administration): 0.05 ± 0.00 % ID
- retention in blood / accumulation at the LNCaP tumor against the comparator (in words) (any time point): less accumulated
- tumor/kidney ratio compared with [^111In]In-PSMA-DA1 (in words) (mouse, in vivo): lower
